# pIC50: −log10 of the molar value.
# Key:
# LOVO cells = experiment: LOVO CTG proliferation assay (120 h) (CRC, G13D); assay type: cell-based; conditions: Homo sapiens, CTG 120 h
# How it was run: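 LOVO cells, 1000 per well in DMEM + 10% FCS, were plated overnight and then dosed with compound from DMSO stock. After 120 h at 37 °C, viability was read by CellTiter-Glo luminescence as a percentage of DMSO controls. IC50 was derived by four-parameter non-linear regression.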
# [1] = test system: KRAS G12C-dependent Ba/F3 cells; experiment: Ba/F3 proliferation assay, KRAS G12C; assay type: cell-based; conditions: Mus musculus, BaF3, 72 h, AlamarBlue
# How it was run: (§1)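 Ba/F3 cells retrovirally transduced with KRAS G12 mutants, puromycin-selected and grown without IL-3, so proliferation depends on the mutant KRAS. Compounds tested in technical duplicates; viability read by AlamarBlue fluorescence, with curve fitting for potency.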
# [2] = Caco-2 assay (permeability PappAB, PappBA, efflux ratio); assay type: in vitro ADME; conditions: human, Caco-2; efflux ratio PappBA/PappAB; 10 μM test compound, pH 7.4; read-out: Caco ER
# How it was run: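 Confluent Caco-2 monolayers on filter supports, 0.25% BSA in both donor and receiver buffer; transport measured a-b and b-a. After 25-30 min preincubation at 37 °C, samples at 0, 30, 60, 90 min quantified by HPLC/MS/MS. Papp from receiver amount per time, filter area and initial donor concentration; efflux ratio = PappBA/PappAB.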
# [3] = test system: KRAS G12V-dependent Ba/F3 cells; experiment: Ba/F3 proliferation assay, KRAS G12V; assay type: cell-based; conditions: Mus musculus, BaF3, 72 h, AlamarBlue;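 also: proliferation IC50 in KRAS G12V-dependent Ba/F3 cells read by AlamarBlue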
# How it was run: as §1
# AsPC-1 cells = experiment: AsPC-1 CTG proliferation assay (120 h) (pancreatic cancer, G12D); assay type: cell-based; conditions: Homo sapiens, ASPC1
# How it was run: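 AsPC-1 cells (KRAS G12D), 2000/well in RPMI with 10% FCS, seeded overnight, then treated with compound for 120 h at 37 °C. Viability by CellTiter-Glo luminescence as percent of DMSO control. IC50 from a four-parameter non-linear fit.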
# SAS cells = experiment: SAS CTG proliferation assay (120 h) (HNSCC, wt amplified); assay type: cell-based
# How it was run: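 SAS cells plated at 300 per well in DMEM:F12 with 10% FCS and left overnight, then given compounds acoustically. After 120 h exposure, viability read by CellTiter-Glo as percent of DMSO control. IC50 from four-parameter non-linear regression.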
# [4] = test system: KRAS G12D-dependent Ba/F3 cells; experiment: Ba/F3 proliferation assay, KRAS G12D; assay type: cell-based; conditions: Mus musculus, BaF3, 72 h, AlamarBlue
# How it was run: as §1
smiles,measurement,setting,value
C[C@H](Oc1cc(-n2ccc(Br)n2)nc(-c2noc3c2CCC[C@@]32CCCc3sc(N)c(C#N)c32)n1)[C@@H]1CCCN1C [II-110],pIC50,LOVO cells,7.04
same,pIC50,[1],7.85
same,"efflux ratio at 90 min, 10 μM",[2],0.5
same,pIC50,[3],7.89
same,pIC50,AsPC-1 cells,5.55
same,pIC50,SAS cells,7.17
same,pIC50,[4],7.29
